# Where a SMILES comes first, the peptide text is derived from it. Bridges are numbered along the chain shown (N, C = ends). [ ]: non-standard residue; d: D form. The star is where a group is joined. ξ: configuration not given here. Trp(1-CH2COOH) = N[C@@H](Cc1cn(CC(=O)O)c2ccccc12)C(=O)O; Phe(3-CF3) = N[C@@H](Cc1cccc(C(F)(F)F)c1)C(=O)O; Phe(4-COOH) = N[C@@H](Cc1ccc(C(=O)O)cc1)C(=O)O; Bip = N[C@@H](Cc1ccc(-c2ccccc2)cc1)C(=O)O; Phe(3-Me) = Cc1cccc(C[C@H](N)C(=O)O)c1; Cyclopropanecarbonyl = O=C(C1CC1)*; Val(3-OH) = CC(C)(O)[C@H](N)C(=O)O; hArg = N=C(N)NCCCC[C@H](N)C(=O)O; Cha = N[C@@H](CC1CCCCC1)C(=O)O; Cit = NC(=O)NCCC[C@H](N)C(=O)O; Thr(3ξ) = CC(O)[C@H](N)C(=O)O; Carboxymethyl = O=C(O)C*; NMeA = CN[C@@H](C)C(=O)O; Orn = NCCC[C@H](N)C(=O)O; Aun = NCCCCCCCCCCC(=O)O; Dab = NCC[C@H](N)C(=O)O; AEEA = NCCOCCOCC(=O)O
# Molecular target: T1, PD-1/PD-L1 interaction (PE-labeled human PD-L1-Ig binding to Jurkat cell line over-expressing human PD-1) (Homo sapiens, UniProt Q15116)
# T1 construct: expressed in transfected cells; host or cells: Jurkat
# Test: Jurkat-PD-1 Cell Binding High-Content Screening Assay (CBA)
# Details: Jurkat-hPD-1 cells, PE-labeled PD-L1-Ig 20 nM final; read-out: Jurkat HPD1 PDL1 IC50
# How it was run: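 Compound is added first to the PD-1-expressing Jurkat cells and held 2 h at 37 °C in serum-containing DMEM. The fluorescent PD-L1 fusion follows at 20 nM final for 1 h. Fixed, Hoechst-stained cells are then imaged for bound label.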
# T1 sequence (Q15116 25-288): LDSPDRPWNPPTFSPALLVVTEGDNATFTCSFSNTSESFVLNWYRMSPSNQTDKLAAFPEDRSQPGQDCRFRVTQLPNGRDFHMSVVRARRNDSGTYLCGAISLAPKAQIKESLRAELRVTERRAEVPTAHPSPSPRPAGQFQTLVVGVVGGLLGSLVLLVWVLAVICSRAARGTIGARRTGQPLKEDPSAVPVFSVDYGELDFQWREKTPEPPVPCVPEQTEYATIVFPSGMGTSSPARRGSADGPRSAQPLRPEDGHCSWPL
row,IC50 [nM],SMILES
1,37.1,Cc1cccc(C[C@@H]2NC(=O)[C@H](CC(=O)O)NC(=O)[C@H](Cc3ccc(OCC(=O)O)cc3)NC(=O)[C@H]([C@@H](C)O)NC(=O)CSC[C@@H](C(=O)N[C@@H](CCN)C(=O)NCCCCCCCCCCC(=O)O)NC(=O)[C@H](CCC(=O)O)NC(=O)[C@H](C(C)(C)O)NC(=O)[C@H](CC3CCCCC3)NC(=O)[C@H](CCN)NC(=O)[C@@H](CC(C)C)NC(=O)[C@H](C)N(C)C(=O)[C@H](Cc3ccc(OCC(=O)O)cc3)NC(=O)[C@H](Cc3ccc(-c4ccccc4)cc3)NC(=O)[C@H](Cc3ccc(OCC(=O)O)cc3)NC2=O)c1 [Example 1418] ({CH2CO}-TY(Carboxymethyl)D[Phe(3-Me)]Y(Carboxymethyl)[Bip]Y(Carboxymethyl)[NMeA][dL][Dab][Cha][Val(3-OH)]EC[Dab][Aun]-OH; thioether N-14)
2,19.2,COc1ccc(C[C@@H]2NC(=O)CSC[C@@H](C(=O)N[C@@H](CCN)C(=O)NCCCCCCCCCCC(=O)O)NC(=O)[C@H](CO)NC(=O)[C@H](C(C)(C)O)NC(=O)[C@H](CC3CCCCC3)NC(=O)[C@H](CCN)NC(=O)[C@@H](CC(C)C)NC(=O)[C@H](C)N(C)C(=O)[C@H](Cc3ccc(OCC(=O)O)cc3)NC(=O)[C@H](Cc3ccc(-c4ccccc4)cc3)NC(=O)[C@H](Cc3ccc(OCC(=O)O)cc3)NC(=O)[C@H](Cc3cccc(C)c3)NC(=O)[C@H](CC(=O)O)NC(=O)[C@H](Cc3ccc(OCC(=O)O)cc3)NC2=O)cc1 [Example 1286] ({CH2CO}-Y(Me)Y(Carboxymethyl)D[Phe(3-Me)]Y(Carboxymethyl)[Bip]Y(Carboxymethyl)[NMeA][dL][Dab][Cha][Val(3-OH)]SC[Dab][Aun]-OH; thioether N-14)

# More lines, now with the values behind:
row,SMILES,IC50 [nM]
1,CC(C)C[C@@H]1NC(=O)[C@H](Cc2c[nH]c3ccccc23)NC(=O)[C@H](CC(=O)O)NC(=O)[C@H](Cc2c[nH]cn2)NC(=O)[C@H](CCCCNC(=N)N)NC(=O)CSC[C@@H](C(=O)N[C@@H](CCN)C(=O)NCCCCCCCCCCC(=O)O)NC(=O)[C@H](CCCN)NC(=O)[C@H](C(C)C)NC(=O)[C@H](CC2CCCCC2)NC(=O)[C@H](CCN)NC(=O)[C@@H](CC(C)C)NC(=O)[C@H](C)N(C)C(=O)[C@H](C(C)C)NC(=O)[C@H](Cc2ccc(-c3ccccc3)cc2)NC1=O [Example 2195] ({CH2CO}-[hArg]HDWL[Bip]V[NMeA][dL][Dab][Cha]V[Orn]C[Dab][Aun]-OH; thioether N-14),80.3
2,Cc1cccc(C[C@@H]2NC(=O)[C@H](CC(=O)O)NC(=O)[C@H](Cc3ccc(OCC(=O)O)cc3)NC(=O)[C@H](CCCCNC(=N)N)NC(=O)CSC[C@@H](C(=O)N[C@@H](CCN)C(=O)NCCCCCCCCCCC(=O)O)NC(=O)[C@H](C(C)O)NC(=O)[C@H](C(C)C)NC(=O)[C@H](CC3CCCCC3)NC(=O)[C@H](CCN)NC(=O)[C@@H](CC(C)C)NC(=O)[C@H](C)N(C)C(=O)[C@H](CCCNC(=O)C3CC3)NC(=O)[C@H](Cc3ccc(-c4ccccc4)cc3)NC(=O)[C@H](Cc3ccc(O)cc3)NC2=O)c1 (stereo partly drawn) [Example 2398] ({CH2CO}-[hArg]Y(Carboxymethyl)D[Phe(3-Me)]Y[Bip][Orn](Cyclopropanecarbonyl)[NMeA][dL][Dab][Cha]V[Thr(3ξ)]C[Dab][Aun]-OH; thioether N-14),16.6
3,Cc1cccc(C[C@@H]2NC(=O)[C@H](CC(=O)O)NC(=O)[C@H](Cc3cn(CC(=O)O)c4ccccc34)NC(=O)[C@H]([C@@H](C)O)NC(=O)CSC[C@@H](C(=O)N[C@@H](CCN)C(=O)NCCCCCCCCCCC(=O)O)NC(=O)[C@H]([C@@H](C)O)NC(=O)[C@H](C(C)C)NC(=O)[C@H](CC3CCCCC3)NC(=O)[C@H](CCN)NC(=O)[C@@H](CC(C)C)NC(=O)[C@H](C)N(C)C(=O)[C@H](Cc3ccc(OCC(=O)O)cc3)NC(=O)[C@H](Cc3ccc(-c4ccccc4)cc3)NC(=O)[C@H](Cc3ccc(OCC(=O)O)cc3)NC2=O)c1 [Example 1304] ({CH2CO}-T[Trp(1-CH2COOH)]D[Phe(3-Me)]Y(Carboxymethyl)[Bip]Y(Carboxymethyl)[NMeA][dL][Dab][Cha]VTC[Dab][Aun]-OH; thioether N-14),44.6
4,Cc1cccc(C[C@@H]2NC(=O)[C@H](CC(=O)O)NC(=O)[C@H](Cc3ccc(OCC(=O)O)cc3)NC(=O)[C@H](CCCNC(=N)N)NC(=O)CSC[C@@H](C(=O)N[C@@H](CCN)C(=O)NCCCCCCCCCCC(=O)O)NC(=O)[C@@H](CO)NC(=O)[C@H](C(C)C)NC(=O)[C@H](CC3CCCCC3)NC(=O)[C@H](CCN)NC(=O)[C@@H](CC(C)C)NC(=O)[C@H](C)N(C)C(=O)[C@H](Cc3ccc(OCC(=O)O)cc3)NC(=O)[C@H](Cc3ccc(-c4ccccc4)cc3)NC(=O)[C@H](C(C)C)NC2=O)c1 [Example 1266] ({CH2CO}-RY(Carboxymethyl)D[Phe(3-Me)]V[Bip]Y(Carboxymethyl)[NMeA][dL][Dab][Cha]V[dS]C[Dab][Aun]-OH; thioether N-14),26.6

# Same assay, conditions: PE-labeled PD-L1-Ig 20 nM final, Jurkat-hPD-1 cells; read-out: Jurkat HPD1 PDL1 IC50
row,IC50 [nM],SMILES
1,25.3,Cc1cccc(C[C@@H]2NC(=O)[C@H](CC(=O)O)NC(=O)[C@H](Cc3ccc(OCC(=O)O)cc3)NC(=O)[C@H](C(C)O)NC(=O)CSC[C@@H](C(=O)N[C@@H](CCN)C(=O)NCCOCCOCC(=O)NCCCCCCCCCCC(=O)O)NC(=O)[C@H](CO)NC(=O)[C@H](C(C)(C)O)NC(=O)[C@H](CC3CCCCC3)NC(=O)[C@H](CCN)NC(=O)[C@@H](CC(C)C)NC(=O)[C@H](C)N(C)C(=O)[C@H](Cc3ccc(OCC(=O)O)cc3)NC(=O)[C@H](Cc3ccc(-c4ccccc4)cc3)NC(=O)[C@H](Cc3ccc(OCC(=O)O)cc3)NC2=O)c1 (stereo partly drawn) [Example 2469] ({CH2CO}-[Thr(3ξ)]Y(Carboxymethyl)D[Phe(3-Me)]Y(Carboxymethyl)[Bip]Y(Carboxymethyl)[NMeA][dL][Dab][Cha][Val(3-OH)]SC[Dab][AEEA][Aun]-OH; thioether N-14)
2,2.8,CC(=O)NCCCC[C@@H]1NC(=O)[C@H](C(C)C)NC(=O)[C@H](CC2CCCCC2)NC(=O)[C@H](CCN)NC(=O)[C@@H](CC(C)C)NC(=O)[C@H](C)N(C)C(=O)[C@H](CCC(N)=O)NC(=O)[C@H](Cc2ccc(-c3ccccc3)cc2)NC(=O)[C@H](Cc2ccc(C(=O)O)cc2)NC(=O)[C@H](Cc2cccc(C(F)(F)F)c2)NC(=O)[C@H](CC(=O)O)NC(=O)[C@H](Cc2ccc(OCC(=O)O)cc2)NC(=O)[C@H](Cc2ccc(OCC(=O)O)cc2)NC(=O)CSC[C@@H](C(=O)N[C@@H](CCN)C(=O)NCCOCCOCC(=O)NCCCCCCCCCCC(=O)O)NC1=O [Example 2598] ({CH2CO}-Y(Carboxymethyl)Y(Carboxymethyl)D[Phe(3-CF3)][Phe(4-COOH)][Bip]Q[NMeA][dL][Dab][Cha]VK(Ac)C[Dab][AEEA][Aun]-OH; thioether N-14)
3,22.1,CC(C)C[C@@H]1NC(=O)[C@H](Cc2c[nH]c3ccccc23)NC(=O)[C@H](CC(=O)O)NC(=O)[C@H](Cc2ccc(OCC(=O)O)cc2)NC(=O)[C@H](Cc2ccc(OCC(=O)O)cc2)NC(=O)CSC[C@@H](C(=O)NCCOCCOCC(=O)NCCCCCCCCCCC(=O)O)NC(=O)[C@H](CCCNC(N)=O)NC(=O)[C@H](C(C)(C)O)NC(=O)[C@H](CC2CCCCC2)NC(=O)[C@H](CCN)NC(=O)[C@@H](CC(C)C)NC(=O)[C@H](C)N(C)C(=O)[C@H](C(C)C)NC(=O)[C@H](Cc2ccc(-c3ccccc3)cc2)NC1=O [Example 2458] ({CH2CO}-Y(Carboxymethyl)Y(Carboxymethyl)DWL[Bip]V[NMeA][dL][Dab][Cha][Val(3-OH)][Cit]C[AEEA][Aun]-OH; thioether N-14)

# — patent publication US20260070945A1, “MACROCYCLIC IMMUNOMODULATORS” (Bristol-Myers Squibb Company, priority 2022, published 2026)
